How the values were obtained:
Assay in all cases: cells
Format in all cases: functional, cell-based
Settings in all cases: Homo sapiens
[1] = system: TE-8;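 note: growth inhibition of TE-8 cells, measured with a cell viability readout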
Description: SANGER: Inhibition of human TE-8 cell growth in a cell viability assay.

[2] = system: SF-268;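 note: growth inhibition of SF-268 cells determined with a cell viability assay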
Description: SANGER: Inhibition of human SF268 cell growth in a cell viability assay.

[3] = system: K562
Description: SANGER: Inhibition of human K-562 cell growth in a cell viability assay.

[4] = system: TE-10;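 note: growth inhibition of TE-10 cells, measured by a cell viability assay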
Description: SANGER: Inhibition of human TE-10 cell growth in a cell viability assay.

[5] = system: OCUB-M;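 note: growth inhibition of the cancer cell line, read out through a cell viability assay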
Description: SANGER: Inhibition of human OCUB-M cell growth in a cell viability assay.

[6] = system: NCI-H1838;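 note: growth inhibition of NCI-H1838 cells, determined with a cell viability readout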
Description: SANGER: Inhibition of human NCI-H1838 cell growth in a cell viability assay.

[7] = system: KARPAS-299
Description: SANGER: Inhibition of human KARPAS-299 cell growth in a cell viability assay.

[8] = system: 8-MG-BA;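 note: growth inhibition of 8-MG-BA cells, read out with a cell viability assay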
Description: SANGER: Inhibition of human 8-MG-BA cell growth in a cell viability assay.

[9] = system: CGTH-W-1;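 note: growth inhibition of human CGTH-W-1 cells measured by cell viability assay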
Description: SANGER: Inhibition of human CGTH-W-1 cell growth in a cell viability assay.

[10] = system: GR-ST
Description: SANGER: Inhibition of human GR-ST cell growth in a cell viability assay.

[11] = system: HT
Description: SANGER: Inhibition of human HT cell growth in a cell viability assay.

[12] = system: ES1;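 note: growth inhibition of ES1 cells, read out with a cell viability assay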
Description: SANGER: Inhibition of human ES1 cell growth in a cell viability assay.

[13] = system: MLMA;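 note: growth inhibition of MLMA cells (human), determined through a cell viability readout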
Description: SANGER: Inhibition of human MLMA cell growth in a cell viability assay.

[14] = system: NCI-H446;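 note: growth inhibition of NCI-H446 cells determined by a cell viability assay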
Description: SANGER: Inhibition of human NCI-H446 cell growth in a cell viability assay.

[15] = system: BE-13;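 note: growth inhibition of human BE-13 cells, measured with a cell viability assay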
Description: SANGER: Inhibition of human BE-13 cell growth in a cell viability assay.

[16] = system: LC-2-ad;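 note: growth inhibition of human LC-2-ad cells, read out with a cell viability assay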
Description: SANGER: Inhibition of human LC-2-ad cell growth in a cell viability assay.

[17] = system: RPMI-8226
Description: SANGER: Inhibition of human RPMI-8226 cell growth in a cell viability assay.

[18] = system: ES7;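 note: growth inhibition of cultured human ES7 cells, read out as cell viability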
Description: SANGER: Inhibition of human ES7 cell growth in a cell viability assay.

[19] = system: NCI-H1092;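 note: cell growth inhibition measured with a cell viability assay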
Description: SANGER: Inhibition of human NCI-H1092 cell growth in a cell viability assay.

[20] = system: OVCAR-4;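 note: growth inhibition of human OVCAR-4 cells, measured with a cell viability assay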
Description: SANGER: Inhibition of human OVCAR-4 cell growth in a cell viability assay.

[21] = system: PSN1;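 note: suppression of growth of human PSN1 cells, read out by a cell viability assay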
Description: SANGER: Inhibition of human PSN1 cell growth in a cell viability assay.

[22] = system: NCI-H1650;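 note: growth inhibition of human NCI-H1650 cells measured by a cell viability assay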
Description: SANGER: Inhibition of human NCI-H1650 cell growth in a cell viability assay.

[23] = system: NMC-G1;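 note: growth inhibition of the NMC-G1 cell line, measured with a cell viability read-out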
Description: SANGER: Inhibition of human NMC-G1 cell growth in a cell viability assay.

[24] = system: NCI-H82;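 note: growth inhibition of NCI-H82 cells, measured with a cell viability readout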
Description: SANGER: Inhibition of human NCI-H82 cell growth in a cell viability assay.

[25] = system: 697
Description: SANGER: Inhibition of human 697 cell growth in a cell viability assay.

[26] = system: MMAC-SF;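 note: growth inhibition of human MMAC-SF cells, read out with a cell viability assay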
Description: SANGER: Inhibition of human MMAC-SF cell growth in a cell viability assay.

[27] = system: LB373-MEL-D;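 note: growth inhibition of the cell line, read out in a cell viability assay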
Description: SANGER: Inhibition of human LB373-MEL-D cell growth in a cell viability assay.

[28] = system: NB6;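 note: growth inhibition of NB6 cells, read out by a cell viability assay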
Description: SANGER: Inhibition of human NB6 cell growth in a cell viability assay.

[29] = system: SNU-5;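 note: cell viability readout used to measure growth inhibition in human NCI-SNU-5 cells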
Description: SANGER: Inhibition of human NCI-SNU-5 cell growth in a cell viability assay.

[30] = system: SK-PN-DW;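 note: growth inhibition measured with a viability assay on these cells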
Description: SANGER: Inhibition of human SK-PN-DW cell growth in a cell viability assay.

[31] = system: KMOE-2;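 note: growth inhibition of human KMOE-2 cells, read out with a cell viability assay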
Description: SANGER: Inhibition of human KMOE-2 cell growth in a cell viability assay.

[32] = system: BB30-HNC;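 note: growth inhibition of the cultured cell line, read out by a cell viability assay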
Description: SANGER: Inhibition of human BB30-HNC cell growth in a cell viability assay.

[33] = system: LU-139
Description: SANGER: Inhibition of human LU-139 cell growth in a cell viability assay.

[34] = system: RCC10RGB;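 note: growth inhibition of human RCC10RGB cells, read out by a cell viability assay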
Description: SANGER: Inhibition of human RCC10RGB cell growth in a cell viability assay.

[35] = system: DB
Description: SANGER: Inhibition of human DB cell growth in a cell viability assay.

[36] = system: Ramos-2G6-4C10;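 note: growth inhibition of the cell line, measured by a cell viability read-out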
Description: SANGER: Inhibition of human Ramos-2G6-4C10 cell growth in a cell viability assay.

[37] = system: SNU-C2B;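 note: cell viability readout used to measure compound-driven suppression of SNU-C2B cell proliferation, IC50 marking half-maximal growth inhibition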
Description: SANGER: Inhibition of human SNU-C2B cell growth in a cell viability assay.

[38] = system: OCI-AML2;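 note: growth inhibition of OCI-AML2 cells, read out with a cell viability assay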
Description: SANGER: Inhibition of human OCI-AML2 cell growth in a cell viability assay.

[39] = system: TE-9;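 note: cell growth inhibition, measured with a cell viability readout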
Description: SANGER: Inhibition of human TE-9 cell growth in a cell viability assay.

[40] = system: NCI-H226;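 note: cell viability read-out used to gauge growth inhibition of the cells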
Description: SANGER: Inhibition of human NCI-H226 cell growth in a cell viability assay.

[41] = system: MFM-223
Description: SANGER: Inhibition of human MFM-223 cell growth in a cell viability assay.

[42] = system: BT-474
Description: SANGER: Inhibition of human BT-474 cell growth in a cell viability assay.

[43] = system: LS-513
Description: SANGER: Inhibition of human LS-513 cell growth in a cell viability assay.

[44] = system: NCI-H1304;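 note: growth inhibition of the cancer cell line, measured in a cell viability assay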
Description: SANGER: Inhibition of human NCI-H1304 cell growth in a cell viability assay.

[45] = system: UACC-257
Description: SANGER: Inhibition of human UACC-257 cell growth in a cell viability assay.

[46] = system: NB5;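 note: growth inhibition of NB5 cells, read out as cell viability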
Description: SANGER: Inhibition of human NB5 cell growth in a cell viability assay.

[47] = system: RKO;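 note: growth inhibition of human RKO cells, read out with a cell viability assay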
Description: SANGER: Inhibition of human RKO cell growth in a cell viability assay.

[48] = system: MZ7-mel;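 note: growth inhibition of human MZ7-mel cells, measured by a cell viability assay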
Description: SANGER: Inhibition of human MZ7-mel cell growth in a cell viability assay.

[49] = system: TE-6;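 note: growth inhibition of TE-6 cells, read out with a cell viability assay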
Description: SANGER: Inhibition of human TE-6 cell growth in a cell viability assay.

[50] = system: LB2518-MEL;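 note: growth inhibition of human LB2518-MEL cells, measured with a cell viability assay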
Description: SANGER: Inhibition of human LB2518-MEL cell growth in a cell viability assay.

[51] = system: LXF-289 cell line
Description: SANGER: Inhibition of human LXF-289 cell growth in a cell viability assay.

[52] = system: MC116;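 note: growth inhibition of MC116 cells, read out with a cell viability assay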
Description: SANGER: Inhibition of human MC116 cell growth in a cell viability assay.

[53] = system: Mo
Description: SANGER: Inhibition of human Mo-T cell growth in a cell viability assay.

[54] = system: LOX IMVI
Description: SANGER: Inhibition of human LOXIMVI cell growth in a cell viability assay.

[55] = system: IA-LM;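 note: cell viability assay measuring growth inhibition of human IA-LM cells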
Description: SANGER: Inhibition of human IA-LM cell growth in a cell viability assay.

[56] = system: NH-12;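 note: growth inhibition of NH-12 cells, read out with a cell viability assay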
Description: SANGER: Inhibition of human NH-12 cell growth in a cell viability assay.

[57] = system: LB771-HNC;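 note: growth inhibition of LB771-HNC human cells, read out with a cell viability assay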
Description: SANGER: Inhibition of human LB771-HNC cell growth in a cell viability assay.

[58] = system: HT-144
Description: SANGER: Inhibition of human HT-144 cell growth in a cell viability assay.

[59] = system: A101D;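 note: growth inhibition of the cell line, measured with a viability assay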
Description: SANGER: Inhibition of human A101D cell growth in a cell viability assay.

[60] = system: LAN-6;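 note: growth inhibition of LAN-6 cells, determined with a cell viability assay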
Description: SANGER: Inhibition of human LAN-6 cell growth in a cell viability assay.

[61] = system: CCRF-CEM;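 note: inhibition of CCRF-CEM cell growth, measured by a cell viability assay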
Description: SANGER: Inhibition of human CCRF-CEM cell growth in a cell viability assay.

[62] = system: MZ1-PC;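 note: cell viability assay measuring growth inhibition of human MZ1-PC cells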
Description: SANGER: Inhibition of human MZ1-PC cell growth in a cell viability assay.

[63] = system: SK-UT-1;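 note: growth inhibition of SK-UT-1 cells, measured by a cell viability assay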
Description: SANGER: Inhibition of human SK-UT-1 cell growth in a cell viability assay.

[64] = system: DSH1;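 note: growth inhibition of human DSH1 cells, measured with a cell viability readout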
Description: SANGER: Inhibition of human DSH1 cell growth in a cell viability assay.

[65] = system: HC-1;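 note: growth inhibition of HC-1 cells measured by a cell viability assay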
Description: SANGER: Inhibition of human HC-1 cell growth in a cell viability assay.

[66] = system: EW-1
Description: SANGER: Inhibition of human EW-1 cell growth in a cell viability assay.

Question: Which results are given for `COc1cc(C)c(Sc2cnc(NC(=O)c3ccc(CNC(C)C(C)(C)C)cc3)s2)cc1C(=O)N1CCN(C(C)=O)CC1` (configuration not stated)?
Answer: IC50 [1]: 6.44 µM; IC50 [2]: > 10.2 µM; IC50 [3]: > 10200 nM; IC50 [4]: > 10200 nM; IC50 [5]: > 10200 nM; IC50 [6]: > 10.2 µM; IC50 [7]: > 10200 nM; IC50 [8]: > 10200 nM; IC50 [9]: > 10200 nM; IC50 [10]: > 10200 nM; IC50 [11]: > 10200 nM; IC50 [12]: 7.44 µM; IC50 [13]: > 10200 nM; IC50 [14]: > 10200 nM; IC50 [15]: > 10200 nM; IC50 [16]: 9.39 µM; IC50 [17]: > 10200 nM; IC50 [18]: > 10.2 µM; IC50 [19]: > 10200 nM; IC50 [20]: 9.62 µM; IC50 [21]: 2510 nM; IC50 [22]: > 10.2 µM; IC50 [23]: 7.16 µM; IC50 [24]: > 10200 nM; IC50 [25]: 6.66 µM; IC50 [26]: > 10.2 µM; IC50 [27]: > 10200 nM; IC50 [28]: > 10200 nM; IC50 [29]: > 10.2 µM; IC50 [30]: 10.2 µM; IC50 [31]: > 10.2 µM; IC50 [32]: 9.34 µM; IC50 [33]: > 10200 nM; IC50 [34]: > 10.2 µM; IC50 [35]: > 10200 nM; IC50 [36]: > 10200 nM; IC50 [37]: 4640 nM; IC50 [38]: 7.48 µM; IC50 [39]: > 10200 nM; IC50 [40]: > 10.2 µM; IC50 [41]: > 10.2 µM; IC50 [42]: > 10200 nM; IC50 [43]: > 10.2 µM; IC50 [44]: > 10200 nM; IC50 [45]: > 10.2 µM; IC50 [46]: > 10200 nM; IC50 [47]: 8.84 µM; IC50 [48]: > 10200 nM; IC50 [49]: > 10200 nM; IC50 [50]: > 10200 nM; IC50 [51]: 9.12 µM; IC50 [52]: > 10200 nM; IC50 [53]: > 10.2 µM; IC50 [54]: > 10200 nM; IC50 [55]: 5390 nM; IC50 [56]: > 10.2 µM; IC50 [57]: > 10200 nM; IC50 [58]: 3340 nM; IC50 [59]: 4810 nM; IC50 [60]: 7.29 µM; IC50 [61]: > 10200 nM; IC50 [62]: 3760 nM; IC50 [63]: > 10200 nM; IC50 [64]: > 10200 nM; IC50 [65]: > 10200 nM; IC50 [66]: 3110 nM

Question: `Cc1n[nH]c2ccc(-c3cncc(OC[C@@H](N)Cc4c[nH]c5ccccc45)c3)cc12` [A-443654] was tested. Which IC50 [1] did it give?
Answer: 0.137 µM

Question: And the IC50 [2]?
Answer: > 1.02 µM

Question: What about the IC50 [3] of the same compound?
Answer: 385 nM

Question: And the IC50 [4]?
Answer: 89.4 nM

Question: What about the IC50 [5] of the same compound?
Answer: 25.7 nM

Question: And the IC50 [6]?
Answer: > 1.02 µM

Question: What about the IC50 [7] of the same compound?
Answer: 473 nM

Question: And the IC50 [8]?
Answer: 163 nM

Question: What about the IC50 [9] of the same compound?
Answer: 246 nM

Question: And the IC50 [10]?
Answer: 448 nM

Question: And the IC50 [11]?
Answer: 373 nM

Question: What about the IC50 [12] of the same compound?
Answer: 0.739 µM

Question: What about the IC50 [13] of the same compound?
Answer: 447 nM

Question: What about the IC50 [14] of the same compound?
Answer: 395 nM

Question: And the IC50 [15]?
Answer: 502 nM

Question: And the IC50 [16]?
Answer: 0.0222 µM

Question: And the IC50 [17]?
Answer: 670 nM

Question: What about the IC50 [18] of the same compound?
Answer: > 1.02 µM

Question: What about the IC50 [19] of the same compound?
Answer: 938 nM

Question: What about the IC50 [20] of the same compound?
Answer: 0.243 µM

Question: And the IC50 [21]?
Answer: 47.3 nM

Question: And the IC50 [22]?
Answer: > 1.02 µM

Question: And the IC50 [23]?
Answer: 0.88 µM

Question: And the IC50 [24]?
Answer: 164 nM

Question: And the IC50 [25]?
Answer: 0.0328 µM

Question: What about the IC50 [26] of the same compound?
Answer: > 1.02 µM

Question: And the IC50 [27]?
Answer: 531 nM

Question: What about the IC50 [28] of the same compound?
Answer: 480 nM

Question: What about the IC50 [29] of the same compound?
Answer: > 1.02 µM

Question: And the IC50 [30]?
Answer: 0.222 µM

Question: What about the IC50 [31] of the same compound?
Answer: > 1.02 µM

Question: And the IC50 [32]?
Answer: 0.22 µM

Question: What about the IC50 [33] of the same compound?
Answer: 367 nM

Question: And the IC50 [34]?
Answer: > 1.02 µM

Question: What about the IC50 [35] of the same compound?
Answer: 375 nM

Question: And the IC50 [36]?
Answer: 170 nM

Question: What about the IC50 [37] of the same compound?
Answer: 290 nM

Question: And the IC50 [38]?
Answer: 0.21 µM

Question: And the IC50 [39]?
Answer: 389 nM

Question: And the IC50 [40]?
Answer: > 1.02 µM

Question: And the IC50 [41]?
Answer: > 1.02 µM

Question: And the IC50 [42]?
Answer: 584 nM

Question: And the IC50 [43]?
Answer: > 1.02 µM

Question: What about the IC50 [44] of the same compound?
Answer: 163 nM

Question: And the IC50 [45]?
Answer: > 1.02 µM

Question: And the IC50 [46]?
Answer: 665 nM

Question: And the IC50 [47]?
Answer: 0.136 µM

Question: And the IC50 [48]?
Answer: 564 nM

Question: And the IC50 [49]?
Answer: 860 nM

Question: And the IC50 [50]?
Answer: 397 nM

Question: What about the IC50 [51] of the same compound?
Answer: 0.179 µM

Question: What about the IC50 [52] of the same compound?
Answer: 137 nM

Question: And the IC50 [53]?
Answer: > 1.02 µM

Question: What about the IC50 [54] of the same compound?
Answer: 797 nM

Question: What about the IC50 [55] of the same compound?
Answer: 200 nM

Question: And the IC50 [56]?
Answer: > 1.02 µM

Question: What about the IC50 [57] of the same compound?
Answer: 222 nM

Question: And the IC50 [58]?
Answer: 153 nM

Question: What about the IC50 [59] of the same compound?
Answer: 133 nM

Question: What about the IC50 [60] of the same compound?
Answer: 0.886 µM

Question: And the IC50 [61]?
Answer: 144 nM

Question: What about the IC50 [62] of the same compound?
Answer: 79.5 nM

Question: And the IC50 [63]?
Answer: 81.4 nM

Question: And the IC50 [64]?
Answer: 361 nM

Question: And the IC50 [65]?
Answer: 208 nM

Question: And the IC50 [66]?
Answer: 221 nM

— ChEMBL document CHEMBL1201861, “Genomics of Drug Sensitity in Cancer screening data, Wellcome Trust Sanger Institute”
